We go through 26 compounds from US8022206B2 (OSI Pharmaceuticals, LLC, priority 2008, dated 2011).

Structures are written as SMILES. Where only a bound is given, the exact number is not on record here.

For test [1], the target named is RON (human) (Homo sapiens, UniProt Q04912). The experiment in a line: RON (human) AlphaScreen kinase assay, Km of ATP. It is filed as biochemical. The following applies: AlphaScreen, Km of ATP; read-out: RON biochemical IC50. An outline of the steps: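 Detection used PT66 AlphaScreen beads added in Tris pH 7.5/NaCl/EDTA/BSA buffer, read after 1 h incubation. Vehicle-only DMSO wells served as controls.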
RON (human), sequence (Q04912 25-1400): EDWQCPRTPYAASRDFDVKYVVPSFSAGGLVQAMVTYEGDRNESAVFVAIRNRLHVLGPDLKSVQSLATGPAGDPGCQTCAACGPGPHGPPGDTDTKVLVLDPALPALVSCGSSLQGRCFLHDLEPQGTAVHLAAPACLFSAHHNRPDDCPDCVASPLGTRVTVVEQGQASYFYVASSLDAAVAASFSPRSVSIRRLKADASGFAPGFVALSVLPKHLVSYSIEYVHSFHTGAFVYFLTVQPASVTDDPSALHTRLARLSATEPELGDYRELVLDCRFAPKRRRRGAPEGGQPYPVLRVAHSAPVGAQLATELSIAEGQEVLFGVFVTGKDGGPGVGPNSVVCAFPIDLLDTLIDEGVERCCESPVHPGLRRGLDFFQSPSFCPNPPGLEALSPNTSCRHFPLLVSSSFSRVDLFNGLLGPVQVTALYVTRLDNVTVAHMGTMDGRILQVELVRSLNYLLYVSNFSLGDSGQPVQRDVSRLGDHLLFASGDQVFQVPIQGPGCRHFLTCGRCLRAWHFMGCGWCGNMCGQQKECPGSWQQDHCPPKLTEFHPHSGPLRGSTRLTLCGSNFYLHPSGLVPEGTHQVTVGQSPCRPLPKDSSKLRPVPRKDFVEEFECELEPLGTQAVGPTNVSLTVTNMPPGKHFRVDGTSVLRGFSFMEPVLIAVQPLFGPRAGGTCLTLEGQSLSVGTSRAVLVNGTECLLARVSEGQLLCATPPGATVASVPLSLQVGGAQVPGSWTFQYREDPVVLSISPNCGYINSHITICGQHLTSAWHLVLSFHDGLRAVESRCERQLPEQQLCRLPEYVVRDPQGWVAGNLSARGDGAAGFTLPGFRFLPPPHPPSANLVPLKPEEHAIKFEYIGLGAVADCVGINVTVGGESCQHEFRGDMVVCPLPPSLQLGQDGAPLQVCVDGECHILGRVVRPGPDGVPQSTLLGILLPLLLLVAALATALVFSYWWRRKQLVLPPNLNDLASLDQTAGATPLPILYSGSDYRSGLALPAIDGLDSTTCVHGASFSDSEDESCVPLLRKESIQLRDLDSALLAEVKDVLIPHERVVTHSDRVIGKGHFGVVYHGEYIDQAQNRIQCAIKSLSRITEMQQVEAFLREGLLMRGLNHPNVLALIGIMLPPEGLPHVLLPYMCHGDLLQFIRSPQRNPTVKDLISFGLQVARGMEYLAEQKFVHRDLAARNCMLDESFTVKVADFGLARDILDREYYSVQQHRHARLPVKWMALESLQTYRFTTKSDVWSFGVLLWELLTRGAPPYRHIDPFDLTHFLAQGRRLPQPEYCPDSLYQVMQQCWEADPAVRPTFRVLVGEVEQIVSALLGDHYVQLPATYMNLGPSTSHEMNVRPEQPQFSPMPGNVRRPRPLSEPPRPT
On the technique in general: Bead proximity is the source of the signal in Alpha formats.

Test [2] deals with MET (human) (Homo sapiens, UniProt P08581). The experiment in a line: MET (human) AlphaScreen kinase assay, Km of ATP. Format: biochemical. The following applies: AlphaScreen, Km of ATP; read-out: Met biochemical IC50. An outline of the steps:
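Human MET at lot-optimised concentration in 50 mM Tris pH 7.4 buffer with 1 mM DTT, compound at 1% DMSO final; enzyme starts the reaction, 60 min at RT.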

MET (human), sequence (P08581 25-1390): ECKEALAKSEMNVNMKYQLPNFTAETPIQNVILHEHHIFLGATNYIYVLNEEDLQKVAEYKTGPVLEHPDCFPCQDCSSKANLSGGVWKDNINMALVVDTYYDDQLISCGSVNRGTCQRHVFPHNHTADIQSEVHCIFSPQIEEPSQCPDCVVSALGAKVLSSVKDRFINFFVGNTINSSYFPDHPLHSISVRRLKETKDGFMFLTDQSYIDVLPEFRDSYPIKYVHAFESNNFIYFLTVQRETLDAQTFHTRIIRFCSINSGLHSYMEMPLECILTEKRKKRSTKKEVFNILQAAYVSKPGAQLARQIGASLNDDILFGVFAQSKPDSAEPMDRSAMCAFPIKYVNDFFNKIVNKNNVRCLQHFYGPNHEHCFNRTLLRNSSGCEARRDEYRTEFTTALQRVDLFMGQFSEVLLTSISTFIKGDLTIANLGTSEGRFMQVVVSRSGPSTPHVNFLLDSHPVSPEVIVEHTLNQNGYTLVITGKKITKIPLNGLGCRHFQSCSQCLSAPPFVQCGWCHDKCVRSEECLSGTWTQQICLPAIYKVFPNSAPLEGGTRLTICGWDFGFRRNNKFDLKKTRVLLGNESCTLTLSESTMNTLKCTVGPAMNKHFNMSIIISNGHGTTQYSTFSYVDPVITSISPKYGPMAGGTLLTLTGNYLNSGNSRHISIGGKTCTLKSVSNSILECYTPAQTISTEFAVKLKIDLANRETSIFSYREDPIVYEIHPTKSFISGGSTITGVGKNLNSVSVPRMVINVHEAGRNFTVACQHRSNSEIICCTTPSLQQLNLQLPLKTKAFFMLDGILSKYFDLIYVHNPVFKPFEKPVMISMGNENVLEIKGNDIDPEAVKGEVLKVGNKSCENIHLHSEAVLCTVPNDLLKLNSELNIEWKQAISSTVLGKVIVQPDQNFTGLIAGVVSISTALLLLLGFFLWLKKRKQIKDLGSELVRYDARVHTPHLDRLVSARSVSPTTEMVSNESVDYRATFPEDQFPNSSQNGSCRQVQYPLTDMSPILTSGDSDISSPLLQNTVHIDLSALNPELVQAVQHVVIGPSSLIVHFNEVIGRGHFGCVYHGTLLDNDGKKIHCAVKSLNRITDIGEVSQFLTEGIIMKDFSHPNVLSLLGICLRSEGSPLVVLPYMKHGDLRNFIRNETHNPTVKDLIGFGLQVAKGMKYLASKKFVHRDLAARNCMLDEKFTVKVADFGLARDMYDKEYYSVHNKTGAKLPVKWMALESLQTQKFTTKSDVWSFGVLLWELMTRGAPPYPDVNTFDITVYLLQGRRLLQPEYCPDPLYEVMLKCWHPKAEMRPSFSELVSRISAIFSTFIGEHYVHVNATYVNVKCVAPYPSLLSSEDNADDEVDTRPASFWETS

One may read the IC50 as the concentration that gives 50% inhibition. For the compound `C[C@@H](Oc1c(N)ncc2c(-c3ccsc3)coc12)c1c(Cl)ccc(F)c1Cl` [Example 134, 7-[(R)-(2,6-Dichloro-3-fluorophenyl)ethoxy]-3-thiophen-3-ylfuro[3,2-c]pyridin-6-ylamine], the IC50 in test [1] and in test [2] was 500 to 5000 nM each time.
As to `C[C@@H](Oc1c(N)ncc2c(-c3nccs3)coc12)c1c(Cl)ccc(F)c1Cl` [Example 135, 7-[(R)-1-(2,6-Dichloro-3-fluorophenyl)-ethoxy]-3-thiazol-2-ylfuro[3,2-c]pyridin-6-ylamine], the IC50 in test [1] and in test [2] was 500 to 5000 nM throughout.
On to `C[C@@H](Oc1c(N)ncc2c(-c3cscn3)coc12)c1c(Cl)ccc(F)c1Cl` [Example 136, 7-[(R)-1-(2,6-Dichloro-3-fluorophenyl)-ethoxy]-3-thiazol-4-ylfuro[3,2-c]pyridin-6-ylamine], for which the IC50 in test [1] and in test [2] was 500 to 5000 nM in each case.
On to `C[C@@H](Oc1c(N)ncc2c(C3=CCOCC3)coc12)c1c(Cl)ccc(F)c1Cl` [Example 138, 7-[(R)-1-(2,6-Dichloro-3-fluorophenyl)-ethoxy]-3-(3,6-dihydro-2H-pyran-4-yl)-furo[3,2-c]pyridin-6-ylamine], for which the IC50 was 500 to 5000 nM in test [1] and less than 500 nM in test [2].
For `C[C@@H](Oc1c(N)ncc2c(C3=CCSCC3)coc12)c1c(Cl)ccc(F)c1Cl` [Example 139, 7-[(R)-1-(2,6-Dichloro-3-fluorophenyl)-ethoxy]-3-(3,6-dihydro-2H-thiopyran-4-yl)-furo[3,2-c]pyridin-6-ylamine], in that order: 500 to 5000 nM and less than 500 nM.
For `C[C@@H](Oc1c(N)ncc2c(C3=CCS(=O)(=O)CC3)coc12)c1c(Cl)ccc(F)c1Cl` [Example 140, 7-[(1R)-1-(2,6-Dichloro-3-fluorophenyl)ethoxy]-3-(1,1-dioxido-3,6-dihydro-2H-thiopyran-4-yl)furo[3,2-c]pyridin-6-amine], in that order: 500 to 5000 nM and less than 500 nM.
For `C[C@@H](Oc1c(N)ncc2c(C3=CCN(C(=O)CO)CC3)coc12)c1c(Cl)ccc(F)c1Cl` [Example 142, 1-[4-{6-Amino-7-[(1R)-1-(2,6-dichloro-3-fluorophenyl)ethoxy]furo[3,2-c]pyridin-3-yl}-3,6-dihydropyridin-1(2H)-yl]-2-hydroxyethanone], in that order: 500 to 5000 nM and less than 500 nM.
In the case of `C[C@@H](Oc1c(N)ncc2c(C3=CCCN(C(N)=O)C3)coc12)c1c(Cl)ccc(F)c1Cl` [Example 143, 5-{6-Amino-7-[(R)-1-(2,6-dichloro-3-fluorophenyl)ethoxy]furo[3,2-c]pyridin-3-yl}-3,6-dihydro-2H-pyridine-1-carboxamide], the results for the IC50 in test [1] and in test [2] were 500 to 5000 nM and less than 500 nM, respectively.
For `C[C@@H](Oc1c(N)ncc2c(C3=CCCC(N)C3)coc12)c1c(Cl)ccc(F)c1Cl` (stereo partly drawn) [Example 145, 3-(5-Aminocyclohex-1-enyl)-7-[(R)-1-(2,6-dichloro-3-fluoro-phenyl)ethoxy]furo[3,2-c]pyridin-6-ylamine], in that order: less than 500 nM and 500 to 5000 nM.
For `C[C@@H](Oc1c(N)ncc2c(C3=CC(N)CCC3)coc12)c1c(Cl)ccc(F)c1Cl` (stereo partly drawn) [Example 146, 3-(3-Aminocyclohex-1-enyl)-7-[(R)-1-(2,6-dichloro-3-fluoro-phenyl)ethoxy]furo[3,2-c]pyridin-6-ylamine], in that order: 500 to 5000 nM and less than 500 nM.
For `C[C@@H](Oc1c(N)ncc2c(C3=CCN(C(=O)NC(C)(C)C)CC3)coc12)c1c(Cl)ccc(F)c1Cl` [Example 148, 4-{6-Amino-7-[(1R)-1-(2,6-dichloro-3-fluorophenyl)ethoxy]furo[3,2-c]pyridin-3-yl}-N-tert-butyl-3,6-dihydropyridine-1(2H)-carboxamide], in that order: 500 to 5000 nM and less than 500 nM.
In the case of `CC(C)NC(=O)N1CC=C(c2coc3c(O[C@H](C)c4c(Cl)ccc(F)c4Cl)c(N)ncc23)CC1` [Example 149, 4-{6-Amino-7-[(1R)-1-(2,6-dichloro-3-fluorophenyl)ethoxy]furo[3,2-c]pyridin-3-yl}-N-(propan-2-yl)-3,6-dihydropyridine-1(2H)-carboxamide], the values for the IC50 in test [1] and in test [2] were 500 to 5000 nM and less than 500 nM, respectively.
`C[C@@H](Oc1c(N)ncc2c(C3=CCN(C(=O)Nc4ccccc4F)CC3)coc12)c1c(Cl)ccc(F)c1Cl` [Example 150, 4-{6-Amino-7-[(1R)-1-(2,6-dichloro-3-fluorophenyl)ethoxy]furo[3,2-c]pyridin-3-yl}-N-(2-fluorophenyl)-3,6-dihydropyridine-1(2H)-carboxamide]: the IC50 in test [1] and in test [2] was 500 to 5000 nM throughout.
`CCNC(=O)N1CC=C(c2coc3c(O[C@H](C)c4c(Cl)ccc(F)c4Cl)c(N)ncc23)CC1` [Example 151, 4-{6-Amino-7-[(1R)-1-(2,6-dichloro-3-fluorophenyl)ethoxy]furo[3,2-c]pyridin-3-yl}-N-ethyl-3,6-dihydropyridine-1(2H)-carboxamide]: the figures for the IC50 in test [1] and in test [2] were 500 to 5000 nM and less than 500 nM, respectively.
For `C[C@@H](Oc1c(N)ncc2c(C3=CCN(C(=O)Nc4ccccc4Cl)CC3)coc12)c1c(Cl)ccc(F)c1Cl` [Example 152, 4-{6-Amino-7-[(1R)-1-(2,6-dichloro-3-fluorophenyl)ethoxy]furo[3,2-c]pyridin-3-yl}-N-(2-chlorophenyl)-3,6-dihydropyridine-1(2H)-carboxamide], in that order: 500 to 5000 nM and 500 to 5000 nM.
For `C[C@@H](Oc1c(N)ncc2c(C3=CC4CCC(C3)N4)coc12)c1c(Cl)ccc(F)c1Cl` (stereo partly drawn) [Example 153, 3-(8-Azabicyclo[3.2.1]oct-2-en-3-yl)-7-[(1R)-1-(2,6-dichloro-3-fluorophenyl)ethoxy]furo[3,2-c]pyridin-6-amine], in that order: 500 to 5000 nM and less than 500 nM.
For `CC(Oc1c(N)ncc2c(-c3cnn(C4CCNCC4)c3)coc12)c1c(Cl)c(F)cc(OCCCN)c1Cl` (stereo not shown) [Example 155, 7-{1-[3-(3-Aminopropoxy)-2,6-dichloro-5-fluorophenyl]ethoxy}-3-[1-(piperidin-4-yl)-1H-pyrazol-4-yl]furo[3,2-c]pyridin-6-amine], in that order: less than 500 nM and less than 500 nM.
As for `CC(Oc1c(N)ncc2c(-c3cnn(C4CCNCC4)c3)coc12)c1c(Cl)c(F)cc(OCCCN(C)C)c1Cl` (stereo not shown) [Example 156, 7-(1-{2,6-Dichloro-3-[3-(dimethylamino)propoxy]-5-fluorophenyl}ethoxy)-3-[1-(piperidin-4-yl)-1H-pyrazol-4-yl]furo[3,2-c]pyridin-6-amine], the IC50 in test [1] and in test [2] was less than 500 nM each time.
As to `CC(Oc1c(N)ncc2c(-c3cnn(C4CCNCC4)c3)coc12)c1c(Cl)c(F)cc(OCCN(C)C)c1Cl` (stereo not shown) [Example 157, 7-(1-{2,6-Dichloro-3-[2-(dimethylamino)ethoxy]-5-fluorophenyl}ethoxy)-3-[1-(piperidin-4-yl)-1H-pyrazol-4-yl]furo[3,2-c]pyridin-6-amine], the IC50 in test [1] and in test [2] was less than 500 nM in each case.
Take `CC(Oc1c(N)ncc2c(-c3cnn(C4CCNCC4)c3)coc12)c1c(Cl)c(F)cc(OC2CCNCC2)c1Cl` (stereo not shown) [Example 158, 7-{1-[2,6-Dichloro-3-fluoro-5-(piperidin-4-yloxy)phenyl]ethoxy}-3-[1-(piperidin-4-yl)-1H-pyrazol-4-yl]furo[3,2-c]pyridin-6-amine]: the half-inhibitory concentration (IC50) in test [1] and in test [2] was less than 500 nM each time.
With `CC(Oc1c(N)ncc2c(-c3cnn(C4CCNCC4)c3)coc12)c1c(Cl)c(F)cc(OC2CNC2)c1Cl` (stereo not shown) [Example 159, 7-{1-[3-(Azetidin-3-yloxy)-2,6-dichloro-5-fluorophenyl]ethoxy}-3-[1-(piperidin-4-yl)-1H-pyrazol-4-yl]furo[3,2-c]pyridin-6-amine], the IC50 in test [1] and in test [2] was less than 500 nM each time.
In the case of `C[C@@H](Oc1c(N)ncc2c(C3=CCN(C(=O)[C@]4(C)CCCN4)CC3)coc12)c1c(Cl)ccc(F)c1Cl` [Example 160, [4-{6-Amino-7-[(1R)-1-(2,6-dichloro-3-fluorophenyl)ethoxy]furo[3,2-c]pyridin-3-yl}-3,6-dihydropyridin-1(2H)-yl][(2S)-2-methylpyrrolidin-2-yl]methanone], the IC50 in test [1] and in test [2] was less than 500 nM in each case.
In the case of `C[C@@H](Oc1c(N)ncc2c(-c3cnn([C@H]4CCNC4)c3)coc12)c1c(Cl)ccc(F)c1Cl` [Example 161, 7-[(1R)-1-(2,6-dichloro-3-fluorophenyl)ethoxy]-3-{1-[(3S)-pyrrolidin-3-yl]-1H-pyrazol-4-yl}furo[3,2-c]pyridin-6-amine], the IC50 in test [1] and in test [2] was less than 500 nM in each case.
For `C[C@@H](Oc1c(N)ncc2c(-c3cnn([C@@H]4CCNC4)c3)coc12)c1c(Cl)ccc(F)c1Cl` [Example 162, 7-[(1R)-1-(2,6-dichloro-3-fluorophenyl)ethoxy]-3-{1-[(3R)-pyrrolidin-3-yl]-1H-pyrazol-4-yl}furo[3,2-c]pyridin-6-amine], the IC50 in test [1] and in test [2] was less than 500 nM each time.
For the compound `C[C@@H](Oc1c(N)ncc2c(C3=CCN(C(C)(C)C)CC3)coc12)c1c(Cl)ccc(F)c1Cl` [Example 163, 3-(1-tert-Butyl-1,2,3,6-tetrahydropyridin-4-yl)-7-[(1R)-1-(2,6-dichloro-3-fluorophenyl)ethoxy]furo[3,2-c]pyridin-6-amine], the IC50 in test [1] and in test [2] was less than 500 nM throughout.
Consider `C[C@@H](Oc1c(N)ncc2c(C3=CC4CCC(C3)N4C)coc12)c1c(Cl)ccc(F)c1Cl` (stereo partly drawn) [Example 164, 7-[(1R)-1-(2,6-Dichloro-3-fluorophenyl)ethoxy]-3-(8-methyl-8-azabicyclo[3.2.1]oct-2-en-3-yl)furo[3,2-c]pyridin-6-amine], for which the IC50 in test [1] and in test [2] was less than 500 nM throughout.
